Measurements published in US11103548B2, “Treatment of endometriosis, angiogenesis and/or endometrial lesion growth” (priority 2013, dated 2021).
No end group written: not given here. *: point of attachment. FITC = O=C1OC2(c3ccc(O)cc3Oc3cc(O)ccc32)c2ccc(NC(=S)*)cc21

Assays:
fertility of the animals = assay: fertility by mating in humanized animal models of endometriosis after treatment; assay type: in vivo; settings: mating after endometriosis is inhibited and treatment is stopped
Protocol: The ability of ST011 to inhibit endometriosis without effecting fertility can be confirmed in, for example, animal model of endometriosis. For these experiments, humanized animal models of endometriosis first can be treated with ST011 and once endometriosis is inhibited and treatment is stopped, fertility of the animals is tested by mating.

SNCG = molecular target: T1, SNCG (Homo sapiens, UniProt O76070); assay: co-immunoprecipitation (co-IP) of peptide with SNCG in MCF7-SNCG cells; assay type: binding; settings: FITC tagged peptide, 8 hour after treatment, IP with anti-SNCG antibody, western blot with anti-FITC antibody
T1 construct: expressed in transfected cells; host or cells: MCF7-SNCG cells
Protocol: In vivo binding of ST011 to SNCG was examined in co-immunoprecipitation (co-IP) experiments (See FIG. 1). MCF7-SNCG cells were treated with FITC tagged […] (TAT)-ST011 (SEQ ID NO: 10) (lane 1 of FIG. 1), or FITC tagged YGRKKRRQRRR (TAT) alone (SEQ ID NO: 11) (lane 2 of FIG. 1) or no treatment control (lane 3 of FIG. 1). 8 hour after treatment, cell lysates were prepared and IP with anti-SNCG antibody was conducted. The presence of TAT-ST011 in SNCG IP complexes obtained from different treated cells was detected by western blot using anti-FITC antibody. […] Thus, FIG. 1 provides further evidence that SNCG is capable of immunoprecipitating TAT-ST011.

HUVECs [1] = assay: WST-1 proliferation assay; assay type: cell-based; settings: 600 ng/mL to 2.5 ng/mL, 48 hours of treatment, PBS control
Protocol: Endothelial cells are an integral part of blood vessels and the proliferation of endothelial cells is extremely important for angiogenesis. Therefore, to assess the role of α-synuclein in endothelial cell proliferation, HUVECs were plated and treated with various concentrations of TATST011 peptide GNSALHVASQHG (SEQ ID NO: 2) ranging from 600 ng/mL to 2.5 ng/mL using PBS as a control. In order to measure the effect of TAT-ST011 peptide GNSALHVASQHG (SEQ ID NO: 2) on HUVEC proliferation a WST-1 proliferation assay was performed.
HUVECs and epithelial cells were trypsinized, suspended in cultured medium and counted. Approximately 10,000 cells per well were seeded onto a 96 well plate. After allowing 24 hours for attachment in 37° C., the cells were treated with either 600 ng/mL, 300 ng/mL, 150 ng/mL, 5 ng/mL or 2.5 ng/mL of TAT-P12 using phosphate buffer saline (PBS, (Sigma Chemical Co., St. Louis, Mo., USA) as a control. The drug was suspended in RPMI. The plates were incubated in 37° C. for 24 or 48 hours after which 10 μL of WST-1 (Roche, Laval, QC, Canada) was added to each well. The plate was then incubated in 37° C. for another 4 hours. The absorbance of the wells was measured at a wavelength of 490 nm or at 510 nm.

HUVECs [2] = assay: in vitro angiogenic tube formation on gel matrix; assay type: cell-based
Protocol: Next, effect of TAT-ST011 peptide GNSALHVASQHG (SEQ ID NO: 2) on angiogenesis and tube formation of HUVEC cell was evaluated.
Extracellular matrix gel solution (Cell biolabs inc, San Diego, Calif., USA) had been thawed overnight at 4° C. and approximately […] of ECM gel solution was added to each well of a 96 well plate. The plate was incubated at 37° C. for 1 hour. HUVECs were trypsinized from culture and approximately 20,000 cells were added per well to the ECM containing 96 well plate. Each well was treated with […] of TAT-P12 at a concentration of 600 ng/mL, 300 ng/mL, 150 ng/mL, 5 ng/mL or 2.5 ng/mL. PBS was used as a control. The tube formation was visualized using a spinning disc confocal microscope and the images were stacked together using ImageJ.

[3] = test system: human endometriotic lesions; assay: mouse xenograft model of endometriosis, gross observation of lesion growth and vascularization; assay type: in vivo, mice; settings: 20 mg/kg daily intraperitoneal for 21 days, necropsy one week after treatment, versus saline
Protocol: Gross observation of endometriotic lesion growth and vascularization in vivo was performed using an animal model. […] The peritoneal cavity of the mice was exposed using surgical tools and the endometriotic lesions were located manually.
A mouse xenograft model was developed using Rag2^−/−/I12rg^−/− double knockout mice on a BalbC background.
Since human estrogen is important for the growth of human endometriotic lesions the mice (n=12) had 60-day release 13-estradiol 17-acetate pellets (15 mg/pellet) (Innovative Research of America, Sarasota, Fla., USA) subcutaneously implanted. The mice were anaesthetized with isofluorane (Pharmaceutical Partners of Canada, Richmond Hill, ON, Canada).
Five days after the implantation of the estrogen 5 pellet, eutopic endometrium obtained from hysterectomy and endometrial biopsies performed at Kingston General Hospital was implanted in the peritoneal cavity of the mice. The obtained endometrium was cut into equal pieces and washed with PBS. The pieces of endometrium were kept in PBS on ice until the surgeries were performed. The mice were anaesthetized in an isofluorane chamber and a small incision was made in their abdomen. Two to three lesions were adhered on the left side of the peritoneal cavity using Vetbond tissue adhesive (3M, St. Paul, Minn., USA) and one or two pieces were dropped freely in the cavity. […]

CRL 7566 cells = assay: intracellular permeability by fluorescent microscopy; assay type: cell-based; settings: 20 micro molar FITC tagged peptide, after 6 hours
Protocol: To further examine the utility of the ST011 peptide as a therapeutic tool against angiogenesis, endometriosis and/or endometrial lesion growth, this peptide was further examined to observe its intracellular permeability in endometrial cells. For these experiments, GYGRKKRRQRRR (TAT) tagged GNSALHVASQHG (ST011) (SEQ ID NO: 10) and a control peptide GYGRKKRRQRRR (TAT CTL; SEQ ID NO: 11) were chemically synthesized. Each peptide contained FITC on its N-terminal end. These peptides were dissolved in 2% DMSO in PBS (pH 7.3) and applied directly on the Petri dish containing model cells (CRL 7566 or HUVECs) at required concentrations. Active internalization of peptide was observed using fluorescent microscopy. Three independent experiments were performed with duplicates of each condition. Model cell line for endometriosis, CRL 7566 cells (FIG. 2) received 20 micro molar FITC tagged TAT-ST011. After 6 hours cells were examined under fluorescent microscope.

T1 sequence (O76070 whole entry): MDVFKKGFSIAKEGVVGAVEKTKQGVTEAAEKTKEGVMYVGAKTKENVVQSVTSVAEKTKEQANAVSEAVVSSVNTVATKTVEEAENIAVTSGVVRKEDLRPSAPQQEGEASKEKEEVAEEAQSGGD

Substance	effect on fertility of the animals (fertility of the animals)	co-precipitation with SNCG (binding to SNCG) (SNCG)	proliferation of HUVECs (HUVECs [1])	morphology of the HUVECs (cell lysis) (HUVECs [2]; 300 ng/mL and 600 ng/mL)	concentration that inhibited tube formation and also changed the morphology of the HUVECs (HUVECs [2]; HUVECs on gel matrix) [ng/mL]	tube formation / branching of HUVECs (HUVECs [2]; various concentrations (600 to 2.5 ng/mL), confocal microscopy)	endometriotic lesion growth [3]	vascularization of the lesions [3]	internalization of peptide into endometrial cells (CRL 7566 cells)
Ac-GNSALHVASQHG-NH2 [ST011 peptide, GNSALHVASQHG]	no effect of ST011 peptide on the fertility	–	–	–	–	–	–	–	–
GYGRKKRRQRRR (TAT) tagged GNSALHVASQHG (ST011) [TAT-ST011]	–	co-precipitate with SNCG	dose dependently decreased the proliferation of HUVECs	caused the cells to lyse	≥ 5	dose dependent inhibition of tube formation	inhibited growth of lesion	prevented the formation of blood vessels to the lesions	capable of going inside endometrial cells
GYGRKKRRQRRR ({FITC}-GYGRKKRRQRRR) [TAT alone, control peptide … (TAT CTL, reference compound]	–	not TAT alone is found to co-precipitate with SNCG	–	–	–	–	–	–	–
